Test [1] concerns the target T1, Protein cereblon/E3 ubiquitin-protein ligase XIAP (Homo sapiens) (UniProt P98170+Q96SW2). Put plainly: PROTAC activity at CRBN/XIAP in human MCF7 cells assessed as induction of XIAP degradation at 0.1 uM measured after 18 hrs by western blot analysis. In kind it is cell-based. (A western blot detects proteins with antibodies after separation by electrophoresis.)
The target in test [2] is T1, Protein cereblon/E3 ubiquitin-protein ligase XIAP (Homo sapiens). Put plainly: PROTAC activity at CRBN/XIAP in human MCF7 cells assessed as induction of XIAP degradation at 1 uM measured after 18 hrs by western blot analysis. In kind it is cell-based.
For test [3], the target named is T2, Protein cereblon/Baculoviral IAP repeat-containing protein 3 (Homo sapiens) (UniProt Q13489+Q96SW2). In words: PROTAC activity at CRBN/cIAP2 in human MCF7 cells assessed as induction of cIAP2 degradation at 0.1 uM measured after 18 hrs by western blot analysis. In kind it is cell-based.
The target in test [4] is T2, Protein cereblon/Baculoviral IAP repeat-containing protein 3 (Homo sapiens). In words: PROTAC activity at CRBN/cIAP2 in human MCF7 cells assessed as induction of cIAP2 degradation at 1 uM measured after 18 hrs by western blot analysis. The class given is cell-based.
Test [5] concerns the target Baculoviral IAP repeat-containing protein 2 (Homo sapiens) (UniProt Q13490). In words: Induction of cIAP1 degradation in human MCF7 cells at 0.1 uM measured after 18 hrs by western blot analysis. The class given is cell-based.
The target is the same in test [6]. Put plainly: Induction of cIAP1 degradation in human MCF7 cells at 1 uM measured after 18 hrs by western blot analysis. In kind it is cell-based.
Test [7] addresses Protein cereblon (Homo sapiens) (UniProt Q96SW2). Put plainly: Induction of CRBN degradation in human MCF7 cells by western blot analysis. The class given is cell-based.
Test [8] has as its target Baculoviral IAP repeat-containing protein 2 (Homo sapiens) (UniProt Q13490). In words: Induction of cIAP1 degradation in human MCF7 cells by western blot analysis. The class given is cell-based.
The target of test [9] is Baculoviral IAP repeat-containing protein 3 (Homo sapiens) (UniProt Q13489). In words: Induction of cIAP2 degradation in human MCF7 cells by western blot analysis. In kind it is cell-based.
Test [10] relates to MCF7. In words: Induction of apoptosis in human MCF7 cells assessed as increase in caspase 7 cleavage at 0.1 uM measured after 18 hrs by western blot analysis. The class given is functional, cell-based.
Test [11] relates to MCF7. In words: Induction of apoptosis in human MCF7 cells assessed as increase in PARP cleavage at 0.1 uM measured after 18 hrs by western blot analysis. The class given is functional, cell-based.
Test [12] has as its system MCF7. Put plainly: Induction of apoptosis in human MCF7 cells assessed as increase in total apoptotic cells at 1 uM measured after 48 hrs by AnnexinV-FITC/PI staining based flow cytometry. The class given is functional. Background: In flow cytometry, cells or beads pass a laser one at a time.
In test [13] the test system is MCF7. Put plainly: Cytotoxicity against human MCF7 cells assessed as inhibition of cell growth measured after 72 hrs by CellTiter-Glo luminescent assay. The class given is functional.
In another test the test system is SK-OV-3. Put plainly: Cytotoxicity against human SK-OV-3 cells assessed as inhibition of cell growth measured after 72 hrs by CellTiter-Glo luminescent assay. In kind it is functional, cell-based. For orientation: ATP-based viability assays read luminescence as a measure of living cells.
Test [14] has as its target T3, Protein cereblon-IAP (Homo sapiens) (UniProt P98170+Q13489+Q13490+Q96SW2). In words: PROTAC activity at CRBN/IAP in human MCF7 cells assessed as inhibition of TNFalpha-induced NFkappaB activation by measuring decrease in IKKalpha/beta phosphorylation at 0.1 uM pretreated for 2 hrs followed by stimulation with TNF-alpha for 3 mins by western blot analysis. In kind it is cell-based. As to conditions: time 123.0 min.

For test [15], the target named is T3, Protein cereblon-IAP (Homo sapiens). In words: PROTAC activity at CRBN/IAP in human MCF7 cells assessed as inhibition of TNFalpha-induced NFkappaB activation by measuring decrease in IkBalpha phosphorylation at 0.1 uM pretreated for 2 hrs followed by stimulation with TNF-alpha for 3 mins by western blot analysis. The class given is cell-based. The conditions noted are these: time 123.0 min.

The target is the same in test [16]. Put plainly: PROTAC activity at CRBN/IAP in human MCF7 cells assessed as inhibition of TNFalpha-induced NFkappaB activation by measuring decrease in p65 phosphorylation at 0.1 uM pretreated for 2 hrs followed by stimulation with TNF-alpha for 3 mins by western blot analysis. The class given is cell-based. As to conditions: time 123.0 min.
For test [17] the target is unchanged. In words: PROTAC activity at CRBN/IAP in human MCF7 cells assessed as inhibition of TNFalpha-induced NFkappaB activation by measuring decrease in p38 phosphorylation at 0.1 uM pretreated for 2 hrs followed by stimulation with TNF-alpha for 3 mins by western blot analysis. The class given is cell-based. The conditions noted are these: time 123.0 min.
In test [18] the test system is MDA-MB-231. In words: Inhibition of TNFalpha-induced cell migration in human MDA-MB-231 cells at 0.1 uM measured after 24 hrs in presence of TNFalpha by transwell assay. The class given is functional, cell-based.
Test [19] relates to MDA-MB-231. Put plainly: Inhibition of TNFalpha-induced cell invasion in human MDA-MB-231 cells at 0.1 uM measured after 24 hrs in presence of TNFalpha by transwell assay. The class given is functional, cell-based.
In test [20] the test system is MDA-MB-157. In words: Inhibition of TNFalpha-induced cell migration in human MDA-MB-157 cells at 0.1 uM measured after 24 hrs in presence of TNFalpha by transwell assay. In kind it is functional, cell-based.
In test [21] the test system is MDA-MB-157. In words: Inhibition of TNFalpha-induced cell invasion in human MDA-MB-157 cells at 0.1 uM measured after 24 hrs in presence of TNFalpha by transwell assay. In kind it is functional, cell-based.
For test [22], the target named is T2, Protein cereblon/Baculoviral IAP repeat-containing protein 3 (Homo sapiens). In words: PROTAC activity at CRBN/cIAP2 in human MCF7 cells assessed as induction of cIAP2 degradation by western blot analysis. In kind it is cell-based.

Structures are written as SMILES. The source made the active and inactive calls. The calls are words filed in the database; no cut-off is given here. Where only a bound is given, the exact number is not on record here.

The term GI50 denotes the concentration at which growth is held to half of that of the control.

T2 sequence (Q13489 whole entry, looked up): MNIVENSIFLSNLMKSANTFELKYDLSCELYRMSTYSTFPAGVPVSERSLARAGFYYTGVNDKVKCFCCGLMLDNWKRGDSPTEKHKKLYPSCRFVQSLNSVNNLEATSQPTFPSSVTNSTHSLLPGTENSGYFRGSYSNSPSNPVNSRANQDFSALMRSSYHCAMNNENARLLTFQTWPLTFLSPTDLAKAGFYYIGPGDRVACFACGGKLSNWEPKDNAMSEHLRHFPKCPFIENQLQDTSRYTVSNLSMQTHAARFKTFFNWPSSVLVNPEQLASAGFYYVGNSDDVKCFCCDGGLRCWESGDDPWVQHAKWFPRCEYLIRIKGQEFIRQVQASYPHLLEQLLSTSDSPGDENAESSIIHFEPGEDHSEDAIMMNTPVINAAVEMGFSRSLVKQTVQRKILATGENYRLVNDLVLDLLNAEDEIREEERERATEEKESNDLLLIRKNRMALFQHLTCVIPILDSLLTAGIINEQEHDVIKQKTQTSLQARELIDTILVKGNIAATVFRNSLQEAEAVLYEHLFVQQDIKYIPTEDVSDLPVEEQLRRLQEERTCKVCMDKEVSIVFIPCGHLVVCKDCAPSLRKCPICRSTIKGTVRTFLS
T2 sequence (Q96SW2 whole entry, looked up): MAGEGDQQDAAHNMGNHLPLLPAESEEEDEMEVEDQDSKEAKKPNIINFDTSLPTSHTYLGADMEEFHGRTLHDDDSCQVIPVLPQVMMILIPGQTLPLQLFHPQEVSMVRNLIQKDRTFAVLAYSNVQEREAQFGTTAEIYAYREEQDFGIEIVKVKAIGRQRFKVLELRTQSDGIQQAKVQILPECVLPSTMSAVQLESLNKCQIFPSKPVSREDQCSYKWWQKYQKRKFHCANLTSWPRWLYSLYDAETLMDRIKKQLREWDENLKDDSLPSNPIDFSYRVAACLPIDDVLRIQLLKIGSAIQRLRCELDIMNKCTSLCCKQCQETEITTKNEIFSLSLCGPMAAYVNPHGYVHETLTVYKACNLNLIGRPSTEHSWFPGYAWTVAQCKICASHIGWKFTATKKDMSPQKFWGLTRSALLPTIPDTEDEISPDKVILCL
Protein cereblon (Homo sapiens), sequence (Q96SW2 whole entry): as the sequence (Q96SW2 whole entry, looked up) above
T1 sequence (P98170 whole entry, looked up): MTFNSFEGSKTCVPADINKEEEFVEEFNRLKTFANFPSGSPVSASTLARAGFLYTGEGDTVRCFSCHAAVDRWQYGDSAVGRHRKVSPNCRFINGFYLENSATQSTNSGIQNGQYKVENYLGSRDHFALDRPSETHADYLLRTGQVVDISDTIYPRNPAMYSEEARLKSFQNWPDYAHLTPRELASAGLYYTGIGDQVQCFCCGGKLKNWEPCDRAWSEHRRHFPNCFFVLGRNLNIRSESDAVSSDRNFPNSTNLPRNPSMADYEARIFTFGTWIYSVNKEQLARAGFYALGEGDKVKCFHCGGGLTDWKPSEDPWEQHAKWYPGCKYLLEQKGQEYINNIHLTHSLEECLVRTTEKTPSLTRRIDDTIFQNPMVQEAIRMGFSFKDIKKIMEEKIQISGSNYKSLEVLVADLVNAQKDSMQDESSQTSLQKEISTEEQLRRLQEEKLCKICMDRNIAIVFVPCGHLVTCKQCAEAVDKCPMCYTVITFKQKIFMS
T1 sequence (Q96SW2 whole entry, looked up): as the sequence (Q96SW2 whole entry, looked up) above
T3 sequence (P98170 whole entry, looked up): as the sequence (P98170 whole entry, looked up) above
T3 sequence (Q13489 whole entry, looked up): as the sequence (Q13489 whole entry, looked up) above
T3 sequence (Q13490 whole entry, looked up): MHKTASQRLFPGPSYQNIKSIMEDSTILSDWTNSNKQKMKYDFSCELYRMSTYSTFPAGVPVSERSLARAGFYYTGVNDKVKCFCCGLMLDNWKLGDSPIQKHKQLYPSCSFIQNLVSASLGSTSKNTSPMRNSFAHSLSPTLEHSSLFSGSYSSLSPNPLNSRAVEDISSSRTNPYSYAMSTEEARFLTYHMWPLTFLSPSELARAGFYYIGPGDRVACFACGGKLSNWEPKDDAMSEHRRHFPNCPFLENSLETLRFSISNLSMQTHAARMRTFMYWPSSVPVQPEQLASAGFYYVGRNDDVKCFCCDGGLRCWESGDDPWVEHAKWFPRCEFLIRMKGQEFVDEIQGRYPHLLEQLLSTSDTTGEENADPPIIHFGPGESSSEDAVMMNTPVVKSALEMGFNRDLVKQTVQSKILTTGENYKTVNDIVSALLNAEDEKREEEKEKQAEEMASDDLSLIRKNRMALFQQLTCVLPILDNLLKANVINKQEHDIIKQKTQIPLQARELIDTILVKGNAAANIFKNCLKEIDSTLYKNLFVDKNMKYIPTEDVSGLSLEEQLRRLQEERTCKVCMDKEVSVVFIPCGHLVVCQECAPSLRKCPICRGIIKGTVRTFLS
T3 sequence (Q96SW2 whole entry, looked up): as the sequence (Q96SW2 whole entry, looked up) above
Baculoviral IAP repeat-containing protein 2 (Homo sapiens), sequence (Q13490 whole entry): as the sequence (Q13490 whole entry, looked up) above
Baculoviral IAP repeat-containing protein 3 (Homo sapiens), sequence (Q13489 whole entry): as the sequence (Q13489 whole entry, looked up) above

As for `CN[C@@H](C)C(=O)N[C@H](C(=O)N1Cc2cc(OCCCNC(=O)C3CCN(c4ccc5c(c4)C(=O)N(C4CCC(=O)NC4=O)C5=O)CC3)ccc2C[C@H]1C(=O)N[C@@H]1CCCc2ccccc21)C(C)(C)C` (some centres undefined), the Activity came out at 52% in test [1]; 13% in [2]; 97% in [3]; 100% in [4]; 92% in [5]; 95% in [6]. Further, in test [7], the result was inactive.

With `CN[C@@H](C)C(=O)N[C@H](C(=O)N1Cc2cc(OCCCCCNc3cccc4c3C(=O)N(C3CCC(=O)NC3=O)C4=O)ccc2C[C@H]1C(=O)N[C@@H]1CCCc2ccccc21)C(C)(C)C` (some centres undefined), the Activity in test [1] was determined as 81%; in test [2], 65%; in [3], 100%; in test [4] it was 100%; in [5] it was 94%; in [6] it was 92%. Moreover, the result in test [7] was inactive.

With `CNC(C)C(=O)NC(C(=O)N1Cc2cc(OCCCCCNc3ccc4c(c3)C(=O)N(C3CCC(=O)NC3=O)C4=O)ccc2C[C@H]1C(=O)NC1CCCc2ccccc21)C(C)(C)C` (single isomer, unassigned), the Activity in test [1] stood at 67%; in test [2], 58%; in [3], 100%; in [4], 98%; in test [5] it was 97%; in test [6] it was 98%. In addition, in test [7], the result was inactive.

`CN[C@@H](C)C(=O)N[C@H](C(=O)N1Cc2cc(OCCCCCNC(=O)C3CN(c4ccc5c(c4)C(=O)N(C4CCC(=O)NC4=O)C5=O)C3)ccc2C[C@H]1C(=O)N[C@@H]1CCCc2ccccc21)C(C)(C)C` (some centres undefined): the Activity in [1] turned out to be 56%; in test [2], 39%; in test [3] it was 100%; in test [4], 100%; in test [5], 92%; in [6], 89%. Moreover, the outcome in test [7] was inactive.

Turning to `CN[C@@H](C)C(=O)N[C@H](C(=O)N1Cc2cc(OCCOCCNC(=O)C3CCN(c4ccc5c(c4)C(=O)N(C4CCC(=O)NC4=O)C5=O)CC3)ccc2C[C@H]1C(=O)N[C@@H]1CCCc2ccccc21)C(C)(C)C` (some centres undefined), the Activity in test [1] amounted to 0%; in [2], 0%; in test [3] it was 99%; in test [4], 94%; in test [5], 94%; in [6] it was 93%. In addition, in [7], the outcome was inactive.

For `CN[C@@H](C)C(=O)N[C@H](C(=O)N1Cc2cc(OCCCCCNC(=O)C3CCN(c4ccc5c(c4)C(=O)N(C4CCC(=O)NC4=O)C5=O)CC3)ccc2C[C@H]1C(=O)N[C@@H]1CCCc2ccccc21)C(C)(C)C` (some centres undefined), the Activity in test [1] came out at 90%; in test [2], 78%; in [3], 97%; in [4] it was 100%; in test [5], 91%; in [6] it was 93%. The outcome in test [7] was inactive.

Consider `CN[C@@H](C)C(=O)N[C@H](C(=O)N1Cc2cc(OCCCCCNC(=O)C3CCN(c4cccc5c4C(=O)N(C4CCC(=O)NC4=O)C5=O)CC3)ccc2C[C@H]1C(=O)N[C@@H]1CCCc2ccccc21)C(C)(C)C` (some centres undefined), for which the Activity in test [1] came to 91%; in test [2], 78%; in test [3] it was 99%; in [4], 90%; in test [5], 93%; in test [6] it was 91%. Further, in test [7], the outcome was inactive.

Turning to `CN[C@@H](C)C(=O)N[C@H](C(=O)N1Cc2cc(OCCCCCCCCNC(=O)C3CCN(c4ccc5c(c4)C(=O)N(C4CCC(=O)NC4=O)C5=O)CC3)ccc2C[C@H]1C(=O)N[C@@H]1CCCc2ccccc21)C(C)(C)C` (some centres undefined), the Activity was determined as 95% in [1]; 82% in test [2]; 98% in [3]; 99% in test [4]; 96% in test [5]; 97% in [6]. Also, the result in [7] was inactive.

As for `CN[C@@H](C)C(=O)N[C@H](C(=O)N1Cc2cc(OCCCCCNC(=O)COc3ccc4c(c3)C(=O)N(C3CCC(=O)NC3=O)C4=O)ccc2C[C@H]1C(=O)N[C@@H]1CCCc2ccccc21)C(C)(C)C` (some centres undefined), the Activity in test [1] was 83%; in test [2], 73%; in test [3], 100%; in test [4], 100%; in test [5] it was 89%; in test [6], 91%. In addition, in test [7], the result was inactive.

On to `CN[C@@H](C)C(=O)N[C@H](C(=O)N1Cc2cc(OCCCCCCCCNC(=O)C3CN(c4ccc5c(c4)C(=O)N(C4CCC(=O)N(C)C4=O)C5=O)C3)ccc2C[C@H]1C(=O)N[C@@H]1CCCc2ccccc21)C(C)(C)C` (some centres undefined), for which the result (in test [8]; in test [9]; in the test with MCF7 [10]; in the test with MCF7 [11]; in the test on SK-OV-3) was Active. Moreover, the Activity with MCF7 [12] is 32%. Besides, the GI50 with MCF7 [13] amounted to 77.8 µM. Moreover, the result in test [14], in test [15], in test [16] and in test [17] was inactive. Further, the inhibition entry in the test on MDA-MB-231 [18], with MDA-MB-231 [19], with MDA-MB-157 [20] and in the test on MDA-MB-157 [21] was “Active” in each case.

As for `CN[C@@H](C)C(=O)N[C@H](C(=O)N1Cc2cc(OCCCCCNC(=O)CNc3ccc4c(c3)C(=O)N(C3CCC(=O)NC3=O)C4=O)ccc2C[C@H]1C(=O)N[C@@H]1CCCc2ccccc21)C(C)(C)C` (some centres undefined), the Activity worked out at 87% in test [1]; 65% in [2]; 100% in test [3]; 100% in test [4]; 91% in [5]; 92% in [6]. The result in test [7] was inactive.

Turning to `CN[C@@H](C)C(=O)N[C@H](C(=O)N1Cc2cc(O)ccc2C[C@H]1C(=O)N[C@@H]1CCCc2ccccc21)C(C)(C)C`, the Activity in test [1] stood at 0%; in test [2] it was 0%; in test [3], 100%; in [4] it was 100%; in test [5], 93%; in test [6], 95%. The Activity with MCF7 [12] was determined as 31%. The outcome (in test [8]; in [22]; in the test on MCF7 [10]; with MCF7 [11]; in the test with SK-OV-3) was Active. For the same compound, the result in test [7] was inactive. Also, the 50% growth inhibitory concentration (GI50) in the test with MCF7 [13] is over 500 µM.

Values taken from ChEMBL document CHEMBL5344409, “Discovery of pan-IAP degraders via a CRBN recruiting mechanism” (2023).
